Values after ≈ are worked out from the molar mass of the structure shown. Where a SMILES comes first, the peptide text is derived from it. Bridges are numbered along the chain shown (N, C = ends).
Assays:
[1] = tested on: B. subtilis (Bs, ATCC 23857); assay: microbe, parasite or virus in culture; assay type: cell-based, Bacillus subtilis; conditions: ATCC 23857, 24 h
Method in brief: (§1)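 Cultures grown in Mueller–Hinton broth were adjusted by OD600 to 2.5–3 × 10^4 CFU/mL and mixed with two-fold peptide dilutions from 256 to 1 µg/mL. Plates were incubated at 35 °C with OD595 monitored every hour for 24 h.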

[2] = tested on: C. glutamicum (Cg, ATCC 13032); assay: microbe, parasite or virus in culture; assay type: cell-based, Corynebacterium glutamicum; conditions: ATCC 13032, 24 h
Method in brief: as §1

[3] = tested on: S. aureus (Sa, ATCC 9144); assay: microbe, parasite or virus in culture; assay type: cell-based, Staphylococcus aureus; conditions: ATCC 9144, 24 h
Method in brief: as §1

[4] = tested on: S. epidermidis RP62A (Se, ATCC 35984); assay: microbe, parasite or virus in culture; assay type: cell-based, Staphylococcus epidermidis; conditions: ATCC 35984, 24 h
Method in brief: as §1

E. coli (Ec, ATCC 25922) = assay: microbe, parasite or virus in culture; assay type: cell-based, Escherichia coli; conditions: ATCC 25922, 24 h
Method in brief: as §1

[5] = tested on: P. aeruginosa (Pa, ATCC 27853); assay: microbe, parasite or virus in culture; assay type: cell-based, Pseudomonas aeruginosa; conditions: ATCC 27853, 24 h
Method in brief: as §1

all bacterial strains = assay: Antibacterial MIC assay, all bacterial strains together (range or geometric mean); assay type: cell-based; conditions: for GM (geometric mean of the MIC values against all bacterial strains): Table 1, six bacterial strains; for GM of MIC Tot. bact.: Table S3, all bacterial test strains, MIC >256 set to 256
Method in brief: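 Broth microdilution in Mueller–Hinton broth against B. subtilis, C. glutamicum, S. aureus, S. epidermidis RP62A, E. coli and P. aeruginosa; inoculum 2.5–3 × 10^4 CFU/mL, 35 °C, OD595 read hourly for 24 h. MIC: lowest peptide concentration giving OD below 10% of growth control; geometric mean across strains, triplicate.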

A. pullulans (Ap) = assay: microbe, parasite or virus in culture; assay type: cell-based, Aurobasidium pollulans; conditions: 48 h
Method in brief: (§2)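 Overnight cultures in potato dextrose broth with 2% glucose at 25–30 °C were diluted to approx. 4 × 10^5 spores/mL and mixed 1:1 with two-fold peptide dilutions plated at 256 to 1 µg/mL. After 48 h at room temperature, OD600 was read. MIC was the lowest concentration giving OD below 10% of the growth control, in triplicate.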

[6] = tested on: C. albicans (Ca, ATCC 10231); assay: microbe, parasite or virus in culture; assay type: cell-based, Candida albicans; conditions: ATCC 10231, 48 h
Method in brief: as §2

Rhodotorula sp. (Rh) = assay: microbe, parasite or virus in culture; assay type: cell-based; conditions: 48 h
Method in brief: as §2

[7] = tested on: human red blood cells (RBC); assay: Haemolytic activity assay; assay type: cell-based; conditions: for Selectivity index (SI) G- / Selectivity index (SI) G+ / Selectivity index (SI) Fungi: Table S3, highest tested concentration used where EC50 above it; for Selectivity index (SI) G-: EC50/GM of Gram-negative strains; for Selectivity index (SI) G+: EC50/GM of Gram-positive strains; for Selectivity index (SI) Fungi: EC50/GM of fungi; for SI (selectivity index = EC50/GM): haemolytic EC50 over GM of MIC against all bacterial strains, Table 1; for RBC Tox. (EC50), haemolytic activity: human RBC, 1 h, 37 °C, concentration giving 50% haemolysis
Method in brief: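 Washed human erythrocytes (1% hematocrit final) incubated 1 h at 37 °C with agitation with lipopeptides at 500–3.9 μM in PBS (≤1% DMSO), duplicates. Haemoglobin release read at 545 nm relative to 0.1% Triton X-100; EC50 is 50% haemolysis, averaged from three experiments.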

[8] = tested on: E. coli MC4100 (wild type, WT); assay: microbe, parasite or virus in culture; conditions: wild type
Method in brief: (§3)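 Broth microdilution in Mueller–Hinton medium, 2.5–3 × 10^4 CFU/mL inoculum, two-fold peptide dilutions from 256 to 1 µg/mL, 35 °C with OD595 read hourly for 24 h. MIC is the lowest concentration giving OD below 10% of the untreated growth control; run in triplicate.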

[9] = tested on: E. coli NR698 (outer membrane permeable mutant, imp4213); assay: microbe, parasite or virus in culture; conditions: MC4100 NR698 imp4213, deficient outer membrane
Method in brief: as §3

[10] = tested on: Gram-positive bacterial strains; conditions: for GM of MIC G+: Table S3, MIC >256 set to 256
Method in brief: as §1

[11] = tested on: Gram-negative bacterial strains (E. coli and P. aeruginosa); assay: Antibacterial MIC assay, Gram-negative strains together (range or geometric mean); assay type: cell-based; conditions: Table S3; MIC >256 set to 256
Method in brief: as §1

[12] = tested on: fungi (A. pullulans, C. albicans, Rhodotorula sp.); assay: Antifungal MIC assay, all fungi together (range or geometric mean); assay type: cell-based; conditions: Table S3; MIC >128 set to 128
Method in brief: as §2

Row | Compound | Antimicrobial Activity (MIC) Gram + Bs [1] [µg/mL] | Antimicrobial Activity (MIC) Gram + Cg [2] [µg/mL] | Antimicrobial Activity (MIC) Gram + Sa [3] [µg/mL] | Antimicrobial Activity (MIC) Gram + Se [4] [µg/mL] | Antimicrobial Activity (MIC) Gram − Ec (E. coli (Ec, ATCC 25922)) [µg/mL] | Antimicrobial Activity (MIC) Gram − Pa [5] [µg/mL] | GM (geometric mean of the MIC values against all bacterial strains) (all bacterial strains) [µg/mL] | GM of MIC Tot. bact. (all bacterial strains) [µg/mL] | Antimicrobial Activity (MIC) Fungi Ap (A. pullulans (Ap)) [µg/mL] | Antimicrobial Activity (MIC) Fungi Ca [6] [µg/mL] | Antimicrobial Activity (MIC) Fungi Rh (Rhodotorula sp. (Rh)) [µg/mL] | Selectivity index (SI) G- [7] | Selectivity index (SI) G+ [7] | Selectivity index (SI) Fungi [7] | SI (selectivity index = EC50/GM) [7] | MIC E. coli MC4100 (WT) [8] [µg/mL] | MIC E. coli NR698 (mutant) [9] [µg/mL] | GM of MIC G+ [10] [µg/mL] | GM of MIC G- [11] [µg/mL] | GM of MIC Fungi [12] [µg/mL] | other results
1 | CC(C)C[C@H](NC(=O)[C@H](CCCCN)NC(=O)[C@@H]1CSSC[C@H](N)C(=O)NCC(=O)N[C@@H](CCCCN)C(=O)N[C@@H](CCCCN)C(=O)N[C@@H](Cc2c[nH]c3ccccc23)C(=O)NCC(=O)N[C@@H](Cc2c[nH]c3ccccc23)C(=O)N[C@@H](Cc2c[nH]c3ccccc23)C(=O)N[C@@H](CCCCN)C(=O)N1)C(N)=O [cTurg-3] (H-CGKKWGWWKCKL-NH2; disulfide 1-10; N-terminus assumed) | 4 | 4 | 32 | 16 | 32 | 128 | 18 | 18 | 32 | 32 | 32 | 13 | 89 | 27 | 47 | 16 (≈ 10.5 µM) | 8 (≈ 5.26 µM) | 10 | 64 | 32 | RBC Tox. (EC50), haemolytic activity [7]: 849 µg/mL
2 | CC(C)C[C@H](NC(=O)[C@H](CCCCN)NC(=O)[C@@H]1CSSC[C@H](N)C(=O)NCC(=O)N[C@@H](CCCCN)C(=O)N[C@@H](CCCCN)C(=O)N2CCC[C@H]2C(=O)N[C@@H](Cc2c[nH]c3ccccc23)C(=O)N[C@@H](Cc2c[nH]c3ccccc23)C(=O)N[C@@H](Cc2c[nH]c3ccccc23)C(=O)N[C@@H](CCCCN)C(=O)N1)C(N)=O [cTurg-4] (H-CGKKPWWWKCKL-NH2; disulfide 1-10; N-terminus assumed) | 8 | 4 | 64 | 32 | 64 | 256 | 32 | 32 | 32 | 64 | 32 | > 8 | > 67 | > 26 | >33 | 16 (≈ 10.3 µM) | 8 (≈ 5.13 µM) | 16 | 128 | 40 | 
3 | CC(C)C[C@H](NC(=O)[C@H](CCCNC(=N)N)NC(=O)[C@@H]1CSSC[C@H](N)C(=O)NCC(=O)N[C@@H](CCCNC(=N)N)C(=O)N[C@@H](CCCNC(=N)N)C(=O)N[C@@H](Cc2c[nH]c3ccccc23)C(=O)N[C@@H](Cc2c[nH]c3ccccc23)C(=O)NCC(=O)N[C@@H](Cc2c[nH]c3ccccc23)C(=O)N[C@@H](CCCNC(=N)N)C(=O)N1)C(N)=O [cTurg-5] (H-CGRRWWGWRCRL-NH2; disulfide 1-10; N-terminus assumed) | 8 | 4 | 16 | 8 | 8 | 16 | 9 | 9 | 32 | 32 | 32 | > 97 | > 138 | > 34 | >123 | 8 (≈ 4.9 µM) | 8 (≈ 4.9 µM) | 8 | 11 | 32 | RBC Tox. (EC50), haemolytic activity [7]: >1101 µg/mL
4 | CC(C)C[C@H](NC(=O)[C@H](CCCNC(=N)N)NC(=O)[C@@H]1CSSC[C@H](N)C(=O)NCC(=O)N[C@@H](CCCNC(=N)N)C(=O)N[C@@H](CCCNC(=N)N)C(=O)N[C@@H](Cc2c[nH]c3ccccc23)C(=O)NCC(=O)N[C@@H](Cc2c[nH]c3ccccc23)C(=O)N[C@@H](Cc2c[nH]c3ccccc23)C(=O)N[C@@H](CCCNC(=N)N)C(=O)N1)C(N)=O [cTurg-6] (H-CGRRWGWWRCRL-NH2; disulfide 1-10; N-terminus assumed) | 4 | 4 | 16 | 8 | 8 | 16 | 8 | 8 | 32 | 32 | 32 | > 97 | > 164 | > 34 |  | 8 (≈ 4.9 µM) | 8 (≈ 4.9 µM) | 7 | 11 | 32 | RBC Tox. (EC50), haemolytic activity [7]: > 1045 µg/mL; MIC against the Gram-positive bacterial strains ([10]; 2 h): 4 to 16 µg/mL
5 | CC(C)C[C@H](NC(=O)[C@H](CCCNC(=N)N)NC(=O)[C@@H]1CSSC[C@H](N)C(=O)NCC(=O)N[C@@H](CCCNC(=N)N)C(=O)N[C@@H](CCCNC(=N)N)C(=O)N2CCC[C@H]2C(=O)N[C@@H](Cc2c[nH]c3ccccc23)C(=O)N[C@@H](Cc2c[nH]c3ccccc23)C(=O)N[C@@H](Cc2c[nH]c3ccccc23)C(=O)N[C@@H](CCCNC(=N)N)C(=O)N1)C(N)=O [cTurg-7] (H-CGRRPWWWRCRL-NH2; disulfide 1-10; N-terminus assumed) | 4 | 4 | 16 | 8 | 16 | 32 | 10 | 10 | 32 | 32 | 32 | 9 | 29 | 6 | 20 | 8 (≈ 4.78 µM) | 8 (≈ 4.78 µM) | 7 | 23 | 32 | RBC Tox. (EC50), haemolytic activity [7]: 197 µg/mL

Reference: PMC9696794, “Synthesis and Antimicrobial Activity of Short Analogues of the Marine Antimicrobial Peptide Turgencin A: Effects of SAR Optimizations, Cys-Cys Cyclization and Lipopeptide Modifications” (International Journal of Molecular Sciences, 2022)
